Experimental findings from PubChem BioAssay (NCI) are described below.

SMILES strings stand for the structures.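 Following 48 hours of exposure in 96-well plates, responses at five concentrations were used to interpolate endpoints linearly. TGI marks complete inhibition of growth.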

Some test systems named below: OVCAR-5 ovarian; UO-31 renal; LOX IMVI melanoma; SK-OV-3 ovarian; T-47D breast; EKVX NSCLC; MDA-MB-435; PC-3 prostate; IGROV1 ovarian; HOP-92 NSCLC; NCI-H226 lung; UACC-62 melanoma; MDA-N.
What all share (assay): inhibition of tumour cell growth, NCI panel, 48 h

`CC(=O)c1cc(C)n2c1CS[C@@H]2c1ccccc1`: the TGI in the assay on OVCAR-5 ovarian, with UO-31 renal, with LOX IMVI melanoma, in the assay on SK-OV-3 ovarian, with T-47D breast and in the assay on EKVX NSCLC was above 100 µM each time. The TGI in the assay with MDA-MB-435, with PC-3 prostate, in the assay with IGROV1 ovarian, with HOP-92 NSCLC and in the assay on NCI-H226 lung was above 100 µM in each case.
`CC1(C)O[C@@H](CBr)C[C@H](C[C@H]2C[C@@H](O)C[C@@H](CCOCc3ccccc3)O2)O1`: the TGI amounted to 38.4 µM with OVCAR-5 ovarian; 43.5 µM with UO-31 renal; 71.8 µM with LOX IMVI melanoma; 33.7 µM with SK-OV-3 ovarian; 38.3 µM with T-47D breast; 33 µM with EKVX NSCLC. Further, the TGI amounted to 55.6 µM in the assay on MDA-MB-435; 39 µM with PC-3 prostate; 42.6 µM with IGROV1 ovarian; 34.4 µM with UACC-62 melanoma; 77.5 µM with HOP-92 NSCLC; 35.5 µM in the assay with NCI-H226 lung.
Turning to `CC(C)(C)OC(=O)N(CCCCNCc1ccc2ccccc2c1)CCCNCc1ccc2ccccc2c1`, the TGI in the assay with OVCAR-5 ovarian turned out to be 3.22 µM; in the assay on UO-31 renal, 3.17 µM; with SK-OV-3 ovarian it was 3.56 µM; with T-47D breast it was 3.44 µM; in the assay with EKVX NSCLC it was 3.05 µM; in the assay with MDA-MB-435 it was 3.47 µM. In addition, the TGI was 4.06 µM in the assay on PC-3 prostate; 3.21 µM in the assay with IGROV1 ovarian; 3.08 µM in the assay with UACC-62 melanoma; 3.18 µM with HOP-92 NSCLC; 3.08 µM with NCI-H226 lung.
As to `Cc1ccc(S(=O)(=O)c2c(N)n(CCN(C)C)c3nc4ccccc4nc23)cc1`, the TGI with OVCAR-5 ovarian, in the assay on UO-31 renal, in the assay on SK-OV-3 ovarian, in the assay on EKVX NSCLC, with IGROV1 ovarian and with HOP-92 NSCLC was above 100 µM each time. The molecule also gave a TGI in the assay with NCI-H226 lung above 100 µM.
Turning to `O=c1[nH]n(Cc2ccccc2Cl)c2ccccc12`, the TGI in the assay with OVCAR-5 ovarian, in the assay with UO-31 renal, in the assay with LOX IMVI melanoma, in the assay on MDA-N, in the assay on EKVX NSCLC and in the assay with MDA-MB-435 was above 100 µM each time. The TGI in the assay with PC-3 prostate, with IGROV1 ovarian, with UACC-62 melanoma, in the assay on HOP-92 NSCLC and in the assay on NCI-H226 lung was above 100 µM in each case.
In the case of `CC(CCCOC(c1ccccc1)(c1ccccc1)c1ccccc1)OC(=O)Nc1ccccc1` (configuration not stated), the TGI in the assay on OVCAR-5 ovarian stood at 26.8 µM; in the assay with UO-31 renal it was 23.7 µM; in the assay with LOX IMVI melanoma it was 25.3 µM; with SK-OV-3 ovarian it was 27.2 µM; in the assay on IGROV1 ovarian it was 30 µM; in the assay with UACC-62 melanoma it was 25.5 µM. In addition, the TGI with HOP-92 NSCLC is 21.7 µM; with NCI-H226 lung it was 25.6 µM.
As for `O=[N+]([O-])c1cccc(C2=NOC3C4CCC(C4)C23)c1` (configuration not stated), the TGI with OVCAR-5 ovarian, in the assay on UO-31 renal, with SK-OV-3 ovarian, in the assay on IGROV1 ovarian, in the assay on HOP-92 NSCLC and in the assay on NCI-H226 lung was above 100 µM each time.
As for `COc1ccc(CCc2nccn2C)cc1OC`, the TGI in the assay on OVCAR-5 ovarian, in the assay on UO-31 renal, in the assay on LOX IMVI melanoma, in the assay with MDA-N, in the assay on SK-OV-3 ovarian and in the assay with EKVX NSCLC was above 100 µM in each case. Moreover, the TGI in the assay with MDA-MB-435, in the assay with PC-3 prostate, in the assay on IGROV1 ovarian, in the assay on UACC-62 melanoma and in the assay on HOP-92 NSCLC was above 100 µM each time.
`O=C(CC1C(=O)c2ccccc2C1=C1C(=O)c2ccccc2C1=O)c1ccccc1` (configuration not stated): the TGI in the assay on OVCAR-5 ovarian, in the assay with UO-31 renal, with LOX IMVI melanoma, with SK-OV-3 ovarian, in the assay with EKVX NSCLC and with IGROV1 ovarian was above 100 µM throughout. The TGI in the assay with UACC-62 melanoma, with HOP-92 NSCLC and in the assay on NCI-H226 lung was above 100 µM in each case.
With `CC1=C(C(=O)Nc2ccc([N+](=O)[O-])cc2)C(c2ccccc2F)C(C(=O)Nc2ccc([N+](=O)[O-])cc2)=C(C)N1`, the TGI was above 100 µM in the assay with OVCAR-5 ovarian; 51.7 µM in the assay with UO-31 renal; 31.3 µM with LOX IMVI melanoma; 79.7 µM with SK-OV-3 ovarian; above 100 µM in the assay on EKVX NSCLC; above 100 µM with IGROV1 ovarian. In addition, the TGI is 31.1 µM in the assay with HOP-92 NSCLC and 79.7 µM with NCI-H226 lung.
As to `C=CCN1CN(c2ccccc2)C2(CCN(CCCC3(c4ccc(F)cc4)OCCO3)CC2)C1=O`, the TGI came to 23.8 µM in the assay on OVCAR-5 ovarian; 22.3 µM in the assay with UO-31 renal; 34.5 µM in the assay on LOX IMVI melanoma; 43.3 µM in the assay with SK-OV-3 ovarian; 40.3 µM in the assay on T-47D breast; 40.1 µM with EKVX NSCLC. For the same molecule, the TGI with PC-3 prostate turned out to be 31.7 µM; in the assay on IGROV1 ovarian, 39.4 µM; with UACC-62 melanoma, 34.5 µM; in the assay on NCI-H226 lung, 36.2 µM.
Regarding `N#CCCN(CCN(CCC#N)C(=O)Nc1ccccc1)C(=O)Nc1ccccc1`, the TGI with OVCAR-5 ovarian, in the assay on UO-31 renal, in the assay on LOX IMVI melanoma, with MDA-N, in the assay with SK-OV-3 ovarian and in the assay with T-47D breast was above 100 µM each time. Besides, the TGI with EKVX NSCLC, in the assay on PC-3 prostate, in the assay on IGROV1 ovarian, in the assay on UACC-62 melanoma, in the assay with HOP-92 NSCLC and in the assay on NCI-H226 lung was above 100 µM each time.
Take `O=C1NC2(CCN(CCCC3(c4ccc(F)cc4)OCCO3)CC2)Oc2ccccc21`: the TGI with OVCAR-5 ovarian, in the assay on UO-31 renal, with LOX IMVI melanoma, in the assay on SK-OV-3 ovarian, in the assay with T-47D breast and in the assay on EKVX NSCLC was above 100 µM throughout. For the same molecule, the TGI with MDA-MB-435, with IGROV1 ovarian, in the assay with UACC-62 melanoma, in the assay on HOP-92 NSCLC and in the assay on NCI-H226 lung was above 100 µM in each case.
